Patent US20040002117A1 (priority 1998, published 2004)

Key:
[1] = molecular target: T1, recombinant human calcineurin catalytic domain, calcineurin(2-347) (Homo sapiens, UniProt Q08209, L343A/M347D/Y341S); experiment: fluorescence polarization competition assay, displacement of OG-VIVIT from calcineurin; assay type: binding
T1 construct: GST (N, cleaved yes); made in house; host or cells: E. coli strain DH5α
Description: Samples were analyzed as described in the preceding paragraph, and the resulting polarization data were plotted against the concentration of unlabelled VIVIT peptide, as shown in FIG. 8B.
The library stocks were dissolved at a nominal concentration of 10 mM in DMSO, and formatted for convenient robotic transfer on 384-well plates at the Institute of Chemistry and Cell Biology, Harvard Medical School. To initiate the competition assay, 40 nl volumes were pin-transferred from each well of a library stock plate to the corresponding wells of an assay plate, utilizing a robotic device. After a minimum 10 min incubation at room temperature to allow the binding to reach equilibrium, fluorescence polarization data were collected employing an Analyst plate reader (Molecular Devices).
Stocks of candidate inhibitor compounds and their structural analogues were purchased from ChemBridge or Asinex. The structure and purity of individual compounds were verified by ^1H NMR, mass spectrometry, or thin-layer chromatography. […] INCA1, INCA2, and INCA6 can be represented generally as follows: […]

[2] = test system: cytokine mRNAs in C1.7W2 T cells; experiment: RNase protection assay of cytokine mRNAs in C1.7W2 T cells stimulated with PMA and ionomycin; assay type: cell-based, murine
Description: The effects of INCA6 on transcription were examined in the case of several cytokine mRNAs that are known targets of calcineurin-NFAT signalling. C1.7W2 T cells were preincubated for 10 min. in medium alone, in medium containing INCA6, or in medium containing CsA and FK506, then stimulated under conditions that normally initiate signalling through the calcium-calmodulin-calcineurin-NFAT pathway. Cells in control samples that had not been pretreated with inhibitor were left unstimulated, or were stimulated for 45 min with 20 nM PMA alone, or with 20 nM PMA and 1 μM ionomycin. Cells in parallel samples that had been pretreated for 10 min with inhibitor were then further incubated for 45 min without stimulation or with PMA and ionomycin, in the continued presence of inhibitor. At the end of the incubation, cells were harvested and total cellular RNA was extracted using Ultraspec RNA-binding resin (Biotecx Laboratories). Levels of cytokine mRNAs were analyzed by RNase protection assays performed with RiboQuant multiprobe kits (Pharmingen) following the instructions of the manufacturer. Briefly, for each sample 10 μg of target RNA was hybridized overnight to a ^32P-labelled RNA probe that had been synthesized in vitro from a template set representing multiple murine cytokine mRNAs, and then the unhybridized probe and other single-stranded RNAs were digested with RNases. The protected RNAs were purified, and probes for the individual cytokine mRNAs were resolved on a denaturing 6% polyacrylamide gel. Transcript levels were quantified by autoradiography and by use of a phosphorimager (Molecular Dynamics). Probes for the individual cytokine transcripts were identified by the length of the respective protected fragments. The results are presented in FIGS. 14A to 14C, which are pictures of RNA gel autoradiograms. Data were corrected for minor variations in RNA loading by normalizing the data for each sample to the intensity of the signal for the housekeeping transcripts L32 and GAPDH (see lower panels of FIGS. 14A, 14B, and 14C).

[3] = test system: NFAT dephosphorylation by calcineurin in C1.7W2 T cells; experiment: ionomycin-induced NFAT dephosphorylation in C1.7W2 T cells, Western blot; assay type: cell-based, murine; details: 1 μM ionomycin 15 min
Description: For the dephosphorylation assay, C1.7W2 T cells were pretreated in Dulbecco's modified Eagle medium, supplemented with 10% fetal calf serum, 10 mM HEPES, and 2 mM glutamine, at 37 C. with INCA6 (5-40 μM) for 10 min, then stimulated for an additional 15 min with 1 μM ionomycin in the continued presence of inhibitor. Control incubations omitted INCA6, ionomycin, or both. DMSO was present at equal concentrations in all incubations. Cells were collected by centrifugation and lysed in Laemmli sample buffer. Samples were analyzed by SDS-polyacrylamide gel electrophoresis according to Laemmli (U K Laemmli (1970) Nature 227, 680-685) using a 6% separating gel, transferred to nitrocellulose membrane, and probed with an antiserum to NFAT1.

[4] = test system: nuclear import of NFAT in C1.7W2 T cells; experiment: NFAT1 immune staining assay, nuclear import in C1.7W2 T cells; assay type: cell-based, murine; details: INCA6 20 μM or 40 μM; CsA/FK506 1 μM/100 nM; 1 μM ionomycin 15 min
Description: For an immune staining assay, C1.7W2 T cells growing on coverslips in Dulbecco's modified Eagle medium, supplemented with 10% fetal calf serum, 10 mM HEPES, and 2 mM glutamine, at 37 C. were pretreated with medium alone, with INCA6 (20 μM or 40 μM), or with CsA/FK506 (1 μM/100 nM) for 10 min, then stimulated for an additional 15 min with 1 μM ionomycin, in medium alone or in the continued presence of inhibitor as appropriate. Medium was removed, and the cells were fixed, permeabilized, and stained using the anti-67.1 antiserum against NFAT1 (A Ho et al (1994) J Biol Chem 269, 28181-28186) and a fluorescent second antibody.

[5] = test system: PMA-MAP kinase signalling pathway in C1.7W2 T cells; experiment: phosphorylation of p44/p42 MAP kinase in PMA-stimulated C1.7W2 T cells; assay type: cell-based, murine; details: INCA6 pretreatment; 20 nM PMA 15 min
Description: Dephosphorylation of NFAT is evident in the shift of the stained NFAT band the sample from cells that were stimulated with ionomycin in the absence of inhibitor (FIG. 12A, lane 2). […] Activation of the latter pathway was monitored by examining phosphorylation of p44/p42 MAP kinase. For this assay the cells were pretreated and incubated as for the NFAT dephosphorylation assay, except that stimulation was for 15 min with 20 nM PMA. Cells were collected by centrifugation, lysed in Laemmli sample buffer, and analyzed by Western blotting with an anti-phospho-p44/p42 MAP kinase antibody (Cell Signaling Technology).

[6] = molecular target: calcineurin (Homo sapiens, UniProt Q08209, L343A/M347D/Y341S); experiment: 1H NMR titration spectroscopy binding experiments; details: 10 μM compound, 20 μM calcineurin, 25° C., buffered D2O
Description: T2-filtered ^1H NMR spectra were obtained on a Bruker Avance 600 instrument with CryoPhobe using low-power presaturation of residual water. Preacquisition delays included up to five spin echos to suppress fast-relaxing broad protein resonances and were times to yield in-phase signals for J-coupled spins. Chemical shifts were referenced to internal standard 5 μM 2,2-dimethylsilapentane-5-sulfonic acid (DSS).

T1 sequence (Q08209 2-347 Y341S/L343A/M347D): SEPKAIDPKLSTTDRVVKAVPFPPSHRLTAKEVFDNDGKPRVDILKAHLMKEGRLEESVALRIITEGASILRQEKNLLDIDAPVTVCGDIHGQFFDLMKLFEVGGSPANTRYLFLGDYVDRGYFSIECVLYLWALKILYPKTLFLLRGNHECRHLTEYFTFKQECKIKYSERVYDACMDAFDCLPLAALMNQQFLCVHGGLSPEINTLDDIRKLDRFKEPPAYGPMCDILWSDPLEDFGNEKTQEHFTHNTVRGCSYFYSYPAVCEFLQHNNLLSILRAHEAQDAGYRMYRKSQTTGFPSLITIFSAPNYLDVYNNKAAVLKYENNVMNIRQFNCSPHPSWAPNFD
calcineurin, sequence (Q08209 2-347 Y341S/L343A/M347D limits assumed): as the sequence (Q08209 2-347 Y341S/L343A/M347D) above

Ki [1]: 0.8 to 5 µM
displacement of OG-VIVIT from calcineurin ([1]; at high concentrations, 1 μM calcineurin, 60 nM OG-VIVIT): complete
IC50 ([1]; calcineurin-VIVIT peptide interaction, read-out: Estimated IC50): 17 µM
binding to calcineurin in the absence of VIVIT peptide [6]: direct molecular interaction
SMILES: O=C1C=CC(=O)C2=C1C1c3ccccc3C2c2ccccc21 [INCA6]
induction of GM-CSF mRNA ([2]; 20 μM INCA6, 20 nM PMA and 1 μM ionomycin 45 min): partially prevented
induction of lymphotactin (Ltn), MIP1β, and MIP-1α mRNAs ([2]; 20 μM INCA6, PMA and ionomycin): partially blocked
induction of TNFα mRNA ([2]; 20 μM or 40 μM INCA6, CsA/FK506, PMA and ionomycin): inhibited
induction of GM-CSF mRNA ([2]; 40 μM INCA6, CsA/FK506 1 μM/100 nM, PMA and ionomycin 45 min): fully blocked
induction of lymphotactin (Ltn), MIP1β, and MIP-1α mRNAs ([2]; 40 μM INCA6, CsA/FK506, PMA and ionomycin): fully blocked
induction of IFNγ mRNA ([2]; INCA6, CsA/FK506, PMA and ionomycin): inhibited
levels of TNFβ, RANTES, and IP-10 mRNAs ([2]; not downstream targets of NFAT): unaffected
basal level of GM-CSF mRNA ([2]; unstimulated cells): not affected
blockade of NFAT dephosphorylation in cells ([3]; 10 μM INCA6): partial
blockade of NFAT dephosphorylation in cells ([3]; 20 μM INCA6): nearly complete
blockade of NFAT dephosphorylation in cells ([3]; 40 μM INCA6): total
localization of NFAT immune staining in ionomycin-stimulated cells [4]: localized to the cytoplasm
activation of the PMA-MAP kinase signalling pathway (phosphorylation of p44/p42 MAP kinase) [5]: not blocked
